{
  "source": "patent US12479858B2",
  "about": "“Macrocyclic compounds as sting agonists and methods and uses thereof” (Lupin Limited, priority 2019, dated 2025)",
  "key": {"[1]": {"assay": "Apparent solubility/extended kinetic solubility by UHPLC", "type": "physicochemical", "conditions": "aqueous buffer, thermodynamic from solid, phosphate buffer, 37° C.", "outline": "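About 0.5 mg solid sample, in duplicate, with 5 μL DMSO and 1 mL phosphate buffer, shaken 24 hrs at 37° C, then cooled and centrifuged. Supernatant quantified by UHPLC against a calibration curve; solubility reported in μM.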"}, "CT26 Allograft": {"test_system": "CT26 Allograft", "assay": "Tumor volume in CT26 allograft BALB/c mice model, intravenous administration", "type": "in vivo", "conditions": "i.v., indicated dose at days 1, 4, and 8", "experimental": "Effect of Compounds on Tumor Volume in CT26 Allograft BALB/c Mice Model by Intravenous (i.v.) Administration\nHealthy, female BALB/c mice in the age group of 5-8 weeks issued from Research Animal Facility (RAF). These mice were housed in individually ventilated cages (IVC) in the experimental animal room and were acclimatized not less than 5 days prior to cell inoculation. All the experimental activities were carried out inside the biosafety cabinet to ensure sterility. Under aseptic conditions, Allograft tumor model was generated by inoculating BALB/c mice with 0.1 million CT26 single cell suspension (colorectal cancer model), using 1 mL disposable syringe fitted with a 26G ½″ sterile needle. Each mouse was inoculated with 100 μL of CT26 cell suspension in phosphate buffered saline (PBS) media, subcutaneously in right flank region. Mice were randomized into different groups, post cell inoculation, with approximately equal mean and equal variation (S.E.M.) of tumor volumes in various treatment groups including vehicle control group.\nTumor size was measured with Vernier caliper when the tumor became palpable. Tumor volume (T. V.) was calculated by using the formula: Tumor volume (mm^3)=(L×W^2)/2 • Where, L—Length of tumor, W—Width of tumor\nMice were selected and randomized, on the basis of tumor volume, into required no. of groups with approximately equal mean and equal variation on day 1 of treatment, post-tumor cell inoculation. All study groups were treated via intravenous route on day 1, 4 and 8 dosing schedule, through lateral tail vein at a dose volume of 5 mL/kg.\nTumor sizes were measured with Vernier caliper twice weekly and body weights of mice were recorded daily.\nPercent tumor growth inhibition (% TGI) was calculated using the formula: % TGI=[1−(Tf−Ti)/(Cf−Ci)]×100 Wherein Tf and Ti are the final and initial test tumor volumes, respectively, and Cf and Ci are the final and initial control mean tumor volumes, respectively.\nPercent Tumor Regression (% TR) was calculated using the formula: % TR=[(Initial T.V.−Final T.V.)/(Initial T.V.)]×100 Wherein T.V.=Tumor Volume\nBody weight change (%) was calculated by using the formula: Body weight change (%)[=(Final B.Wt.)−(Initial B.Wt.)/Initial B.Wt.]×100 Wherein B.Wt.=Body weight"}, "[2]": {"assay": "Plasma and tumor compound concentrations in CT26 tumor-bearing mice (LC-MS/MS)", "type": "in vivo, BALB/c mice", "conditions": "0.375 mg/kg single i.v.; for concentration at 3.5 h: 3.5 h (Table 4); for concentration at 8 h: 8 h (Table 4); for concentration at 12 h: 12 h (Table 4)", "experimental": "Pharmacokinetic and Pharmacodynamic Profiling and Estimation of Immune Cell Infiltration in Tumors Following Treatment with Compounds 2, 6, 8, 12 and 14\nSerum and tumor cytokine levels and corresponding compound concentrations in mouse plasma were determined following single-dose intravenous administration in CT26 (murine colorectal carcinoma) tumor-bearing mice. Briefly, naïve BALB/c mice in the age group of 6-8 weeks were inoculated with 0.1 million CT-26 cells/animal in phosphate buffered saline (PBS), subcutaneously. […] Blood and tumor samples were harvested at various time points up to 24 h post-dose. Tumor samples were homogenized and prepared for cytokine estimation (ELISA) and compound concentration were determined by LC-MS/MS. Serum aliquots and tumor samples were snap-frozen and stored at −80° C. till further analysis. Serum and tumor samples were evaluated for Interferon beta (IFNβ), interleukin-6 (IL-6) and tumor necrosis factor alpha (TNFα) by enzyme linked immunosorbent assay (ELISA) using kits from R & D systems (Quantikine mouse IL-6 and TNFα kits) and PBL biosciences (Verikine mouse IFNβ kit).\nBioanalysis of plasma and tumor samples: Plasma and tumor concentrations of test compounds were determined by LC-MS/MS method. Tumor samples were homogenized utilizing a bead-based homogenizer. Plasma samples and tumor homogenates were extracted using protein precipitation method with organic solution containing respective internal standards. Plasma and tumor concentrations were determined against respective calibration curve. Table 3 indicates the concentration of Compound 2 in plasma and tumor at different administered doses. Table 4 indicates the concentration of Compounds 6, 8, 12, and 14 in plasma and tumor at different administered doses. Table 5 indicates cytokine levels for Compound 2 in serum and tumor at different doses. Table 6 indicates cytokine levels for Compounds 6, 8, 12 and 14 in serum and tumor at 0.375 mpk."}, "[3]": {"conditions": "BALB/c, mouse, plasma, intravenous, read-out: Plasma Conc."}, "[4]": {"conditions": "BALB/c, mouse, tumor, intravenous, read-out: Tumor Conc."}},
  "note": "Where a name gives a salt, the structure may show the parent alone. Read-outs that look alike come from different tables or passages of the source.",
  "data": [
    {"compound": "CCn1nc(C)cc1C(=O)Nc1nc2cc(C(N)=O)cc3c2n1C/C=C/Cn1c(NC(=O)c2cc(C)nn2CC)nc2cc(C(=O)N[C@H]4CC[C@H](C(=O)O)CC4)cc(c21)OC[C@@H](N1C2CCC1COC2)CO3", "note": "[Compound 14, (1S,4R)-4-((8S,E)-8-(3-oxa-8-azabicyclo[3.2.1]octan-8-yl)-12-carbamoyl-1,15-bis(1-ethyl-3-methyl-1H-pyrazole-5-carboxamido)-8,9,16,19-tetrahydro-7H-6,10-dioxa-2,14,15a,19a-tetraazacyclopentadeca[3,2,1-cd:8,9,10-c′d′]diindene-4-carboxamido)cyclohexane-1-carboxylic acid sodium salt]", "values": [
      {"measurement": "solubility at 24 h", "setting": "[1]", "value": 6.8, "unit": "mM"},
      {"measurement": "effect on tumor volume", "setting": "CT26 Allograft", "value": "reduces tumor volume"},
      {"measurement": "subjects exhibiting complete tumor regression", "setting": "CT26 Allograft", "value": "6 out of 9"},
      {"measurement": "Plasma Conc.", "setting": "[2]; 24 h (Table 4)", "value": "BLQ"},
      {"measurement": "concentration at 3.5 h", "setting": "[2]; [3]", "value": "450 ± 70", "unit": "nM"},
      {"measurement": "concentration at 8 h", "setting": "[2]; [3]", "value": "90 ± 10", "unit": "nM"},
      {"measurement": "concentration at 12 h", "setting": "[2]; [3]", "value": "70 ± 60", "unit": "nM"},
      {"measurement": "concentration at 3.5 h", "setting": "[2]; [4]", "value": "170 ± 20", "unit": "nM"},
      {"measurement": "concentration at 8 h", "setting": "[2]; [4]", "value": "130 ± 20", "unit": "nM"},
      {"measurement": "concentration at 12 h", "setting": "[2]; [4]", "value": "160 ± 60", "unit": "nM"},
      {"measurement": "concentration at 24 h", "setting": "[2]; BALB/c, mouse, tumor, intravenous, 24 h (Table 4), read-out: Tumor Conc.", "value": "180 ± 60", "unit": "nM"}
    ]}
  ]
}
